{"source": "paper PMC13313556", "about": "“Development and characterization of triazole-based WDR5 inhibitors for the treatment of glioblastoma” (JCI Insight, 2026)", "key": {"[1]": {"biological_target": "WDR5 (Homo sapiens, UniProt P61964)", "set-up": "human WDR5 residues Ser22-Cys334 were codon optimized for E. coli; made in house; host or cells: E. coli T7 Express lysY/Iq (New England Biolabs), pET27 plasmid", "conditions": "read-out: direct WDR5 Ki; cited from earlier work"}, "[2]": {"tested_on": "MV4:11", "conditions": "read-out: MV4:11 GI50; cited from earlier work"}, "[3]": {"tested_on": "intracranial L0 PDX tumors", "assay": "Long-term intracranial L0 xenograft", "assay_type": "in vivo", "conditions": "30 mg/kg once a day i.p.", "experimental": "Briefly, L0 cells were intracranial injected into 6–12 week old NSG mice. Once fully anesthetized, mice were secured into a stereotaxic apparatus and 20,000 L0 Cells were injected into the left hemisphere 0.5 mm rostral and 1.8 mm lateral to the b4regma with 3.5 mm depth from the scalp. […] Animals were monitored over time for the presentation of neurological and behavioral symptoms at which time the animals were humanely euthanized. Survival analysis was completed using PRISM 9.1.2 and comparison were made using Log-Rank (Mantel-Cox) test."}, "[4]": {"tested_on": "RPS24, PYGL, CKMT1, SALL2, NID2, PYGB, RPL14 transcripts", "assay": "RT-qPCR of WDR5-target genes in patient-derived CSCs (L0, L1, L2, DI318, 3832)", "assay_type": "cell-based, human", "conditions": "72 hours", "experimental": "Cells were harvested by centrifugation (5 minutes, 500g) into 2 mL Eppendorf Tubes and total RNA was purified on spin columns using the RNeasy Plus Kit (Qiagen, includes gDNA removal columns). In total, 2.5 μg of total RNA was treated with ezDNAse (Thermo Fisher) and then reverse transcribed with the SuperScript IV VILO RT Master Mix (Invitrogen). cDNA was diluted 1:100 in nuclease-free water and then transcripts were quantified using the PowerUp SYBR Green Master Mix (Thermo Fisher) on a QuantStudio 3 qPCR machine according to the manufacturer’s recommendations. Primer sets are provided in the Supporting Information. Raw Cq values were normalized per sample to the housekeeper ACTB and then the fold-change relative to DMSO treated cells was calculated as FC = 2^–ΔΔCq."}, "[5]": {"tested_on": "DI318 flank PDX tumors", "assay": "ELDA of cells dissociated from DI318 flank tumors", "assay_type": "in vivo, NSG mice", "conditions": "30 mg/kg once a day i.p. over 7 days", "experimental": "(§1) L0 and DI318 CSCs were split with Accutase as single cells into NBMc. In total, 200 μL of CSCs were seeded into each well of a 96-well TC treated plate (n = 10 well per density) at 50, 25, 13, 6, 3, and 1.5 cells/well. […] The stem cell frequency was quantified and treatments were compared with DMSO as described by Hu and Smyth ([98]).\n(1 picture or pasted object on this page, not shown here)"}, "[6]": {"tested_on": "DI318 CSCs", "assay": "Extreme limiting dilution assay (ELDA) in DI318", "assay_type": "cell-based, human", "conditions": "14 days", "experimental": "as §1"}}, "data": [{"molecule": "COc1cc(CN2CCc3c(cc(Cn4ccn(C)c4=N)cc3-c3ccc(F)cc3C)C2=O)cc(OC)c1", "note": "[C16, reference compound]", "values": [{"measurement": "Ki", "setting": "[1]", "result": "< 0.02", "unit": "nM"}, {"measurement": "GI50", "setting": "[2]", "result": 38, "unit": "nM"}]}, {"molecule": "COc1cc(Cn2nnc3c2CCc2c-3cc(Cn3ccnc3C)cc2C2CC2)ccc1F", "note": "[C3TD343]", "values": [{"measurement": "effect on survival", "setting": "[3]", "result": "no effect on survival"}, {"measurement": "tolerability", "setting": "[3]; up to 71 days", "result": "well tolerated"}, {"measurement": "survival in L0 Intracranial Xenograft (Kaplan-Meier)", "setting": "[3]; vehicle 72 days", "result": 71, "unit": "days"}]}, {"molecule": "COc1cc(Cn2nnc3c2CCc2c(-c4cn(C)nc4C(F)(F)F)cc(Cn4ccnc4C)cc2-3)cc(OC)c1", "note": "[C3TD078]", "values": [{"measurement": "IC50", "setting": "[4]; Homo sapiens, L0 and DI318, 5 genes, read-out: average IC50 of transcriptional downregulation (qPCR)", "result": 80, "unit": "nM"}, {"measurement": "PYGB expression log2FC", "setting": "[4]; L0, L2, DI318, 3832, 200 nM", "result": "< 1.0"}, {"measurement": "PYGL and CKMT1 downregulation", "setting": "[4]; all 5 CSC models, 200 nM", "result": "~ 4 fold"}, {"measurement": "RPL14 expression", "setting": "[4]; all 5 CSC models, 200 nM", "result": "unaffected"}, {"measurement": "RPS24 downregulation", "setting": "[4]; all 5 CSC models, 200 nM", "result": "~ 2 fold"}, {"measurement": "effect on stem cell frequency of treated tumors", "setting": "[5]", "result": "did not reduce tumor growth or affect stem cell frequency"}, {"measurement": "DI318 ELDA stem cell frequency (1 in N)", "setting": "[6]; 20 nM", "result": 1.6}, {"measurement": "DI318 ELDA stem cell frequency (1 in N)", "setting": "[6]; 200 nM", "result": 2.1}, {"measurement": "DI318 ELDA stem cell frequency (1 in N)", "setting": "[6]; 2000 nM", "result": 2.2}]}]}
